Results on 7 sequences are retold here after US20220307013A1, “GENE FRAGMENT OVEREXPRESSION SCREENING METHODOLOGIES, AND USES THEREOF” (priority 2019, published 2022).

Experiment [1] concerns triple-negative breast cancer cell growth. The experiment can be described thus: Inhibition of cell growth by drug-like peptides (summary statements). The format is cell-based. The note with it: compared with FDA approved small molecules. As to the method:
Engineering Peptides for Exogenous Delivery. Peptides shown in FIG. 3B were fused to an N-terminal cell penetrating motif via a (GS)3 linker sequence (Table 5) and chemically synthesized by GenScript's Custom Peptide Synthesis service at crude purity. For dose response experiments, cells were plated in 96 well plates (n=4) at 50% confluency and peptides were added at the indicated concentrations with cell viability quantified after 24hrs via the WST-8 assay. Cell viability was normalized to that of an untreated control on the same plate.

Experiment [2] concerns HEK293T cells. The experiment can be described thus: Arrayed validation of lentivirally delivered gene fragments, WST-8 cell growth, HEK293T.
Description: (§2) All cell lines used were cultured in DMEM media supplemented with 10% FBS. The fitness impact of highly depleted gene fragments was tested in an arrayed format via a WST-8 (Dojindo) cell growth assay. […] Cells were transduced at an MOI of 4 and switched to puromycin containing media after 48 hours. Following 24 hours of puromycin selection 1,500 cells were seeded per well as biological replicates in a 96 well plate. All experimental groups for Hs578T cells had n=4. […] For HEK293T and MCF-7 cells all experimental groups had n=8. 2 μg/ml puromycin was used to select Hs578T and MCF-7 cells, while 3.5 μg/ml puromycin was used to select MDA-MB-231 and HEK293T cells. […] Cell growth was then quantified via absorbance at 450 nm following 1.5 hrs of incubation with WST-8 reagent. A two-tailed P value was then calculated via an unpaired ttest with Welch's correction.
The subject of experiment [3] is MCF-7 cells. Put plainly: Arrayed validation of lentivirally delivered gene fragments, WST-8 cell growth, MCF-7.
Description: as §2
In experiment [4] the test system is Hs578T cells. Put plainly: Arrayed validation of lentivirally delivered gene fragments, WST-8 cell growth, Hs578T. Particulars: 7 days, vs GFP control.
Description: as §2
The subject of experiment [5] is MDA-MB-231 cells. The experiment can be described thus: Arrayed validation of lentivirally delivered gene fragments, WST-8 cell growth, MDA-MB-231. Particulars: 7 days, vs GFP control.
Description: as §2
The test system of experiment [6] is H929. Put plainly: Cell proliferation assay (CellTiter-Glo), H929. Format: cell-based. Particulars: H929, Human Multiple Myeloma, peptides 100 μM-0.2 μM, 72 hrs. The protocol:
(§1) Cell Proliferation Assay. The Tat-RAF1-73, Tat-RAF1-78, Tat-EGFR-697 and Tat-Flag peptides were tested for growth inhibition in an in vitro cell proliferation assay. The assay tested the peptides against ten tumor cell lines and four non-tumor cell lines (Primary Fibroblasts, CCD 841 CoN, human umbilical vein cells and Human Hepatocytes). Cells were plated in a 384 well plate and allowed to grow for 24 hrs. Peptides were then added to cultures at a final concentration range of 100 μM-0.2 μM. Cells and peptides were then reacted for 72 hrs, after which the CellTiter-Glo Luminescent Cell Viability Assay kit (Promega) was used to assess cytotoxicity of therapeutic peptides. IC50 values were determined by the percent cell growth of the untreated (vehicle) control calculated from the luminescence signals compared to test wells. The surviving fraction of cells is determined by dividing the mean luminescence values of the test agents by the mean luminescence values of the untreated control. The inhibitory concentration value, IC50, for the test agents and control was estimated using Prism 8 software (GraphPad Software, Inc.) by curve- fitting the data using the non-linear regression analysis.

Experiment [7] deals with SNU398. Put plainly: Cell proliferation assay (CellTiter-Glo), SNU398. The format is cell-based. Particulars: SNU398, RAF1 mRNA (Log2) 6.07, 72 hrs. As to the method: as §1
Experiment [8] deals with Jurkat. The experiment can be described thus: Cell proliferation assay (CellTiter-Glo), Jurkat. The note with it: RAF1 mRNA (Log2) 6.05, 72 hrs. The format is cell-based. As to the method:
as §1

Experiment [9] relates to HUH6-luc. Put plainly: Cell proliferation assay (CellTiter-Glo), HUH6-luc. Particulars: RAF1 mRNA (Log2) 6.05, 72 hrs. Format: cell-based. The protocol:
as §1

Experiment [10] has as its system Colo205. The experiment can be described thus: Cell proliferation assay (CellTiter-Glo), Colo205. The format is cell-based. The note with it: Colo205, Human Colon, 72 hrs. As to the method:
as §1

In experiment [11] the test system is A549. Put plainly: Cell proliferation assay (CellTiter-Glo), A549. The format is cell-based. Particulars: A549, RAF1 mRNA (Log2) Negative, 72 hrs. The protocol:
as §1

The subject of experiment [12] is MDA-MB-231. The experiment can be described thus: Cell proliferation assay (CellTiter-Glo), MDA-MB-231. Format: cell-based. The note with it: MDA-MB-231, EGFR mRNA (Log2) 4.78, 72 hrs. The protocol:
as §1

For experiment [13], the system named is HT1376. Put plainly: Cell proliferation assay (CellTiter-Glo), HT1376. The format is cell-based. The note with it: HT1376, EGFR mRNA (Log2) 5., 72 hrs, starred value was averaged using >100 μM value for one trial result. The protocol: as §1
In experiment [14] the test system is FaDu. The experiment can be described thus: Cell proliferation assay (CellTiter-Glo), FaDu. The format is cell-based. The note with it: EGFR mRNA (Log2) 6.28, 72 hrs. The protocol:
as §1

Experiment [15] relates to SK-MEL-5. Put plainly: Cell proliferation assay (CellTiter-Glo), SK-MEL-5. The format is cell-based. The note with it: SK-MEL-5, EGFR mRNA (Log2) 5.92, 72 hrs. As to the method: as §1
The subject of experiment [16] is Primary Fibroblasts. The experiment can be described thus: Cell proliferation assay (CellTiter-Glo), Primary Fibroblasts. Format: cell-based. The note with it: Skin Fibroblast (non-tumor), 72 hrs. The protocol: as §1
Experiment [17] relates to CCD 841 CoN. Put plainly: Cell proliferation assay (CellTiter-Glo), CCD 841 CoN. The format is cell-based. The note with it: Normal Human Colon (non-tumor), 72 hrs. As to the method: as §1
For experiment [18], the system named is Human Hepatocytes. The experiment can be described thus: Cell proliferation assay (CellTiter-Glo), Human Hepatocytes. The format is cell-based. The note with it: Human Hepatocytes (non-tumor), 72 hrs. As to the method:
as §1

Experiment [19] relates to Human umbilical vein endothelial cells (HUVEC). Put plainly: Cell proliferation assay (CellTiter-Glo), HUVEC. Format: cell-based. The note with it: Normal endothelial (non-tumor), 72 hrs. The protocol: as §1
Experiment [20] has as its system ten tumor cell lines and four non-tumor cell lines. The experiment can be described thus: Cell proliferation assay (CellTiter-Glo), summary over the cell panel. Format: cell-based. Particulars: any of the cells screened. The protocol:
as §1
Ten cancer cell lines were screened as well as […] non-cancer cell types (e.g. primary fibroblasts, CCD 841 CoN, and human hepatocytes). […]

“Also recorded” adds a separate entry of the source. Where no end group is shown, it is not given here. Bounds are passed on as bounds.

In the case of “MRNGMSLHDCLMKALKVRGLQPECCAVFRLLHEHKGKKARL (cysteines drawn unpaired) [RAF1-73]”, in [1], the “triple-negative breast cancer cell growth in vitro” value is “opposed triple-negative breast cancer cell growth in vitro as effectively as some FDA approved small molecules”. Besides, the “cell growth after lentiviral overexpression (WST-8)” value (from here on “cell growth … (WST-8)”) in [2] is given as “no growth defects”.
In the case of “MEAPNQALLRILKETEFKKIKVLGSGAFGTVYKGLWIPEGE [EGFR-697]”, the “triple-negative breast cancer cell growth in vitro” value in experiment [1] is “opposed triple-negative breast cancer cell growth in vitro as effectively as some FDA approved small molecules”. For the same sequence, the “cell growth … (WST-8)” value is recorded as “reduced fitness defect” in experiment [3], “deleterious to cell growth; also recorded: significant growth arrest” in experiment [4], “no growth defects” in experiment [2] and “deleterious to cell growth” in experiment [5].
Regarding “MPTIEDSYRKQVVIDGETCLLDILDTAGKEEYSAMRDQYMR [KRAS61K-13]”, the “cell growth … (WST-8)” value in experiment [4] and in experiment [5] was “significantly reduced cell growth” in each case.
Regarding “GRKKRRQRRRPPQGSGSGSMEAPNQALLRILKETEFKKIKVLGSGAFGTVYKGLWIPEGE [Tat-EGFR-697]”, the IC50 in [6] was found to be 5.1 µM; in experiment [7], 29.2 µM; in experiment [8] it was 41.1 µM; in experiment [9], 73.5 µM; in [10], 19.8 µM; in experiment [11], 59.6 µM. The IC50 was 56.6 µM in experiment [12]; 95.6 µM in experiment [13]; 89.2 µM in experiment [14]; 27.6 µM in [15]; 15.1 µM in experiment [16]; > 100 µM in experiment [17]. For the same sequence, the IC50 amounted to 11.6 µM in [18] and 14 µM in [19].
Take “GRKKRRQRRRPPQGSGSGSDYKDHDGDYKDHDIDYKDDDDK [Tat-Flag, reference compound]”: the IC50 in experiment [6], in [7], in [8], in experiment [9], in [10] and in experiment [11] was > 100 µM each time. Further, the IC50 in [12], in experiment [13], in [14], in experiment [15], in [16] and in experiment [17] was > 100 µM in each case. Moreover, the IC50 in experiment [18] and in experiment [19] was > 100 µM throughout. Further, in [20], the “activity in the cells screened” value was “no activity”.
For “MFVDEYDPTIEDSYRKQVVIDGETCLLDILDTAGKEEYSAM [KRAS61K-7]”, the “cell growth … (WST-8)” value in experiment [4] and in experiment [5] was “significantly reduced cell growth” each time.
Consider “MIQNHFVDEYDPTIEDSYRKQVVIDGETCLLDILDTAGKEE [KRAS61K-3]”, for which the “cell growth … (WST-8)” value in experiment [4] and in [5] was “significantly reduced cell growth” in each case.
